Measured values as given in paper PMC4094517, “Structural Analysis and Mutant Growth Properties Reveal Distinctive Enzymatic and Cellular Roles for the Three Major L-Alanine Transaminases of Escherichia coli” (PLoS ONE, 2014).

How the values were obtained:
[1] = target: T1, AlaA (Escherichia coli, UniProt P0A959); assay: X-ray crystal structure, […] Å; assay type: binding; conditions: covalent (internal aldimine, Schiff base with Lys240); acetate from crystallisation solution also in active site; crystals in 0.25 M lithium acetate, 22% PEG 3350, 20 °C
T1 construct: full length, 405 residues, N-terminal His6-TEV tag kept (pETM11, pAlaA), expressed in E. coli BL21(DE3), homodimer about 90 kDa

[2] = target: the molecule itself; assay: SEC; Superdex 200 10/300 GL after HisTrap, 4°C; elution mass estimated

Molecule	X-ray crystal structure, 2.11 Å [1]	stoichiometry N [2]
Cc1ncc(COP(=O)(O)O)c(C=O)c1O [PLP]	An intact Schiff base linkage between Lys240 and PLP	–
His-tagged AlaA (alanine aminotransferase AlaA of Escherichia coli) (enzyme, UniProt P0A959 1-405, looked up, Lys240 in Schiff base linkage with pyridoxal 5'-phosphate (LLP, Lys-PLP), AlaA, alanine aminotransferase (glutamic-pyruvic transaminase), Escherichia coli, 405-amino-acid monomer; alaA amplified from E. coli XL1-Blue genomic DNA into pETM11; pETM11 adds an N-terminal hexahistidine tag and a TEV protease cleavage site; Modelled residues 1-404 (chain A) and 2-405 (chain B); also called full-length AlaA; His6-AcTev-AlaA; source: E. coli BL21(DE3), purified (HisTrap, …)) MSPIEKSSKLENVCYDIRGPVLKEAKRLEEEGNKVLKLNIGNPAPFGFDAPDEILVDVIRNLPTAQGYCDSKGLYSARKAIMQHYQARGMRDVTVEDIYIGNGVSELIVQAMQALLNSGDEMLVPAPDYPLWTAAVSLSSGKAVHYLCDESSDWFPDLDDIRAKITPRTRGIVIINPNNPTGAVYSKELLMEIVEIARQHNLIIFADEIYDKILYDDAEHHSIAPLAPDLLTITFNGLSKTYRVAGFRQGWMVLNGPKKHAKGYIEGLEMLASMRLCANVPAQHAIQTALGGYQSISEFITPGGRLYEQRNRAWELINDIPGVSCVKPRGALYMFPKIDAKRFNIHDDQKMVLDFLLQEKVLLVQGTAFNWPWPDHFRIVTLPRVDDIELSLSKFARFLSGYHQL	–	2
